Here are results for 3 compounds from patent US5051438A, “Alkoxy-substituted dihydrobenzopyran-2-carboxylic acids and derivatives thereof, compositions and use” (G. D. Searle & Co., priority 1990, dated 1991).

Assay [1] relates to Human neutrophils. Description: Modified Boyden Chamber Chemotaxis, LTB4-induced. It is filed as cell-based. The following applies: 3×10^-8 M LTB4, 90 minutes, 37° C; for Relative Potency, Chemotaxis LTB4: potency relative to compound of Example 1(b), defined as 1.0. The source says:
(§1) Neutrophils were purified from venous blood of normal human donors using standard techniques of dextran sedimentation, centrifugation on Ficoll-paque® (Pharmacia) or Histopaque® sterile solution (Sigma) and hypotonic lysis of erythrocytes (Boyum, A., Isolation of Leukocytes From Human Blood: Further Observations. Scand. J. Lab. Clin. Invest., 21 (Suppl. 97): 31, 1968). The purity of isolated neutrophils was >95%. […] A final cell suspension of 3.4×10^6 neutrophils/ml of HEPES-buffered Hanks' balanced salt solution (HBSS, pH 7.3) was added to the upper well (0.8 ml) of a modified Boyden chamber (blind well). […] Following a 90 minute incubation at 37° C. in 5% CO2 -95% air, cells from the lower well were lysed and nuclei counted in a Model S-Plus-IV Coulter Counter. Percent inhibition was calculated from cell counts corrected for random migration by subtracting the mean of the HBSS control. […] Pat. No. 4,889,871.

Assay [2] relates to Human neutrophils. Description: Modified Boyden Chamber Chemotaxis, fMLP-induced. It is filed as cell-based. Conditions: 1.0×10^-8 M fMLP, 90 minutes, 37° C; for Relative Potency, Chemotaxis fMLP: potency relative to compound of Example 1(b), defined as 1.0.
From the text: as §1

The target in the next assay is T1, LTB4 Receptor (Homo sapiens, UniProt Q15722).
T1 construct: Neutrophils were purified from venous blood of normal human donors; endogenous in cells; host or cells: neutrophils from venous blood of normal human donors (>95% pure)
T1 sequence (Q15722 whole entry): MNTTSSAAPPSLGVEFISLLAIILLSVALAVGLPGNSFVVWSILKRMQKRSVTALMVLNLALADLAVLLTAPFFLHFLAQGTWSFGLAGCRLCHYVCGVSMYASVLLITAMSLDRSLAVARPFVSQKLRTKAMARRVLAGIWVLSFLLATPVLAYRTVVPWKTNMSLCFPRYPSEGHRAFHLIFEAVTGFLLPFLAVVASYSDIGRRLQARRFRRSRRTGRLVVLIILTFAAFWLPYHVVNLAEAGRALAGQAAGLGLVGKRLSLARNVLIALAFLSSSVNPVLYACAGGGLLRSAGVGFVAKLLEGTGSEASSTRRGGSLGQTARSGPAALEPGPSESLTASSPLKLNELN
Description: LTB4 Receptor Binding Assay. The following applies: potency relative to compound of Example 1(b), defined as 1.0; 0.6×10^-9 M (^3H) LTB4, human neutrophils, 0° C, 45 minutes. The protocol:
Neutrophils were purified from venous blood of normal human donors using standard techniques of dextran sedimentation, centrifugation on Ficoll-paque® (Pharmacia) or Histopaque® sterile solution (Sigma) and hypotonic lysis of erythrocytes (Boyum, A., Isolation of Leukocytes From Human Blood: Further Observations. Scand. J. Lab. Clin. Invest., 21 (Suppl. 97): 31, 1968). […] The incubation was carried out at 0° C. for 45 minutes and terminated by adding 5 ml of ice-cold HBSS followed by rapid filtration of incubation mixture under vacuum through GF/C glass fiber filters. The filters were further washed with 10 ml HBSS and radioactivity was determined. […] All data refer to specific binding. […] Pat. No. 4,889,871.

[3] abbreviates: Homo sapiens, Neutrophil, 1.5 h, value in parentheses.

As usually defined, the IC50 is the concentration that gives 50% inhibition. `CCCc1c(OCCCOc2ccc(C(C)=O)c(OC)c2CCC)ccc2c1OC(C(=O)O)CC2` (centres unmarked) [Example 1(b), 7-[3-(4-acetyl-3-methoxy-2-propylphenoxy)propoxy]-3,4-dihydro-8-propyl-2H-1-benzopyran-2-carboxylic acid, reference compound]: the IC50 in the assay with Human neutrophils [1] (setting [3]) came out at 1.8 µM; in the assay on Human neutrophils [2] (setting [3]), 5.4 µM.

As for `CCCc1c(OCCCOc2ccc(-c3ccon3)c(OC)c2CCC)ccc2c1OC(C(=O)O)CC2` (centres unmarked) [Example 4, 3,4-Dihydro-7-[3-[4-(3-isoxazolyl)-3-methoxy-2-propylphenoxy]propoxy]-8-propyl-2H-1-benzopyran-2-carboxylic acid], the “Relative Potency, LTB4 Receptor Binding” value at LTB4 Receptor was 0.70. In addition, the “Relative Potency, Chemotaxis LTB4” value with Human neutrophils [1] amounted to 0.25. The “Relative Potency, Chemotaxis fMLP” value in the assay with Human neutrophils [2] was found to be 0.37.

Take `CCCc1c(OCCCOc2ccc(-c3cc[nH]n3)c(OC)c2CCC)ccc2c1OC(C(=O)O)CC2` (centres unmarked) [Example 6, 3,4-Dihydro-7-[3-[3-methoxy-2-propyl-4-(1H-pyrazol-3-yl)phenoxy]propoxy]-8-propyl-2H-1-benzopyran-2-carboxylic acid]: the “Relative Potency, LTB4 Receptor Binding” value on LTB4 Receptor amounted to 0.88. The “Relative Potency, Chemotaxis LTB4” value with Human neutrophils [1] amounted to 0.66. Moreover, the “Relative Potency, Chemotaxis fMLP” value in the assay with Human neutrophils [2] is recorded as 0.35.
